Data on two molecules can be found in patent US20260306968A1, “METHOD FOR THE SEPARATION OF PHOSPHORUS STEREOISOMERS OF REMDESIVIR USING LIQUID-LIQUID CHROMATOGRAPHY” (ROTACHROM TECHNOLÓGIAI ZRT., priority 2023, published 2026).

For data set [1] the following is noted: Várnai et al., J. Pharm. Biomed. Anal., 2021; cited from earlier work.
Data set [2] is described as follows: Dissolving ability of the preferred solvent systems for the remdesivir mixture. It is filed as physicochemical. On the procedure: The preferred solvent systems are characterized by a short settling time (less than 30 sec), a good dissolving ability (more than 20 mg racemic mixture of remdesivir can be dissolved in 1 mL of the solvent system), while from the toxicological aspect, their components can be categorized into class 3 and/or class 4 solvents classes.

Turning to `CCC(CC)COC(=O)[C@H](C)N[P@](=O)(OC[C@H]1O[C@@](C#N)(c2ccc3c(N)ncnn23)[C@H](O)[C@@H]1O)Oc1ccccc1` [remdesivir], the “ionization constant (basic pka)” value in data set [1] is on record as 3.56.

As for `CCC(CC)COC(=O)[C@H](C)NP(=O)(OC[C@H]1O[C@@](C#N)(c2ccc3c(N)ncnn23)[C@H](O)[C@@H]1O)Oc1ccccc1` (mixture of isomers) [racemic mixture of remdesivir], in data set [2], the “amount that can be dissolved in 1 mL of the solvent system” value was “more than 20 mg”.
